Test results taken from US4474764A, “3-Amino-2-hydroxy-4-phenylbutanoic acid derivatives and pharmaceutical composition containing the same” (Zaidan Hojin Biseibutsu Kagaku Kenkyu Kai, priority 1981, dated 1984).
pIC50: −log10 of the molar value.

How the values were obtained:
[1] = system: morphine analgesia-non-effective Wistar rats; assay: Effect of enhancing morphine analgesia, tail-flick latency (Test 2); assay type: in vivo, rat
Description: Effect of enhancing morphine analgesia was tested.
To Wistar rats (10 week-age, male, body weight 250~300 g) was given intraperitoneally morphine at a dose of 0.5 mg/kg, and these rats receiving the morphine were classified into the group of morphine analgesia-effective rats and the group of morphine analgesia-non-effectiverats according to the classification method described in the "Showa Igakukai Zasshi" Vol. 39, No. 5, pages 537~542 (1979). […] The effect of analgesia was evaluated according to the method of tail-flick latency of rats described in the "Showa Igakukai Zasshi" Vol. 39, No. 5, pages 537~542 (1979). The evaluation of pain threshold of rats according to the tail-flick latency method was made as follows: Radiant heat stimulus was applied to the region of the rat tail which positioned 1 cm away from the tail tip and which had been colored black with a black-dye, and the time of latency involved in the tail flick, namely the period of time lapsing between the time of application of the heat stimulus and the time of the reflective flick response of the tail was measured. The quantity of the heat applied was so controlled that the average time of latency of the tail-flick response appearing in the control group of rats (receiving neither the test compound nor the morphine) was about 2.0 seconds. The tests were accomplished as long as the maximum value for the tail-flick latency was 7.0 seconds or less, as otherwise the skin of the rat tail could be damaged by the application of heat. In other words, if the time for the tail-flick latency was longer than 7.0 seconds, the tests were stopped to prevent the damage of the rat tail. The radiant heat stimulus was repeated 5 times for each test rat at an interval of 15 minutes and the times of latency in the flick response of the tail measured in each test were averaged. In each test, 5 rats were used.
The difference in the time of the tail-flick latency between the test rats (receiving 250 mg/kg of the test compound plus 0.5 mg/kg of morphine) and the control rats (receiving 0.5 mg/kg of morphine alone) was calculated, and the effect for enhancement of morphine analgesia was estimated in term of the value of percentages which were calculated by the following equation: [formula]

[2] = system: morphine analgesia-non-effective Wistar rats; assay: as above; assay type: in vivo, rat; remark: listed apart in the source
[3] = system: mice of ddy-strain; assay: Analgesic activity by the acetic acid-writhing method (Test 3); assay type: in vivo, mouse; conditions: for Number of Writhings (Average value ± standard error): 30 minutes before 0.6% acetic acid i.p., counted during 15 minutes; for Suppression of writhing reactions: compared to the control group
Source text: Analgesic activity of test compound was estimated according to the acetic acid-writhing method.
Mice groups each containing 10 mice of ddy-strain (male, 5 weeks-aged, average body weight about 20 grams) were employed as the test animal. A suspension of the test compound, D-Phe-AHPA suspended in an aqueous solution containing 0.5% of gum arabic and 7% of an active surfectant (consisting of the reaction products of hydrogenated castor oil with polyoxyethylene, commercially available under a registered tradename "Nikkol HCO-60", a product of Nihon Nyukazai Co., Ltd., Japan) was subcutaneously injected into each mouse at a dosage of 30, 150 or 250 mg/kg of the test compound. The above-mentioned suspension so subcutaneously injected was containing the test compound at such a concentration that 0.2 ml of said suspension as injected into each mouse provided the dosage of 30 mg/kg, 150 mg/kg or 250 mg/kg of the test compound. 30 Minutes later, […] of an aqueous solution of 0.6% of acetic acid was injected intraperitoneally into the mice. 5 Minutes after the injection of the aqueous acetic acid, estimation was commenced to count the number of the writhing reaction of the treated mice (the motions such as abdominal constrictions and extensions of the treated mice as induced by the injection of acetic acid) which took place during the subsequent 15 minutes (see the Japanese medical book "Iyaku Kaihatsu Koza" Vol. 5 pages 282~286, published from Chijin-Shokan in 1971 and an English medicinal journal "Brit. J. Pharmacol." 32, pages 295~310, 1968). For control, another mice groups received the subcutaneous administration of an aqueous solution containing no test compound but containing 0.5% of gum arabic and 7% of the active surfectant (Nikkol HCO-60). The rate (%) of suppressing the writhing reactions was evaluated as compared to the control group. "Students-t-test" was employed for the statistical analysis of the test results.

[4] = target: T1, enkephalinase (Rattus norvegicus, UniProt P07861); assay: Inhibitory activity against enkephalinase (Test 1); assay type: biochemical; conditions: enkephalinase from corpus striatum of rat brain; substrate methionine-enkephaline; 37° C., 1 hour; pH 7.7
T1 construct: homogenizing corpus striatum of rat brain and by partial purification of the brain homogenate; from tissue; host or cells: rat brain corpus striatum, homogenate partially purified by the method of Gorenstein et al
T1 sequence (P07861 1-750): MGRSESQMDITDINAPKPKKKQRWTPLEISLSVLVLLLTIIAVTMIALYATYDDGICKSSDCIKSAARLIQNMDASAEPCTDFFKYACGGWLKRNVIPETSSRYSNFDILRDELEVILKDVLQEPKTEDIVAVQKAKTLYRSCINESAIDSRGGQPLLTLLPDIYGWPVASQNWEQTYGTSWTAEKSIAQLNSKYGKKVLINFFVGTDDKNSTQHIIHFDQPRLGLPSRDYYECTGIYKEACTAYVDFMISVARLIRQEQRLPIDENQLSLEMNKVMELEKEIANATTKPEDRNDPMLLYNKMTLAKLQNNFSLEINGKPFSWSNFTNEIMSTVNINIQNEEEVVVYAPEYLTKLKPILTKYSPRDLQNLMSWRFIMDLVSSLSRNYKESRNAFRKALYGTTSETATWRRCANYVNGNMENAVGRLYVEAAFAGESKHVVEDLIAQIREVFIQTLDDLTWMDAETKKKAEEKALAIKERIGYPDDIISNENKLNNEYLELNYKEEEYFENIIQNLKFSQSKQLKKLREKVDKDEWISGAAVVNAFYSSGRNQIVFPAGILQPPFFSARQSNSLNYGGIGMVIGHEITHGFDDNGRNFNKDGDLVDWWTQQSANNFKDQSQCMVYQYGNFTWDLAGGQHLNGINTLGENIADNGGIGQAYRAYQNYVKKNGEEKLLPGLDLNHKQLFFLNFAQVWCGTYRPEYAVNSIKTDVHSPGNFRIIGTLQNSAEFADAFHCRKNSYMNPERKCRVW
Description: Inhibitory activity against enkephalinase were tested.
A preparation of enkephalinase was made by homogenizing corpus striatum of rat brain and by partial purification of the brain homogenate according to the method of Gorenstein et al (see the "Life Science" Vol. 25, 2065~2070 (1979) Pergamon Press, U.S.A.).
A test compound was dissolved in a mixture of Trishydrochloride buffered solution (pH 7.7) and an aqueous 1% Triton X100 (an active surfectant) to such a concentration that the added quantity of the test compound amounted to one-tenth of the volume of said mixture. To the solution of the test compound so prepared was added the enkephalinase, followed by incubation for five minutes at ambient temperature and further by addition of methionine-enkephaline as the substrate. The admixture so obtained was incubated at 37° C. for 1 hour and then subjected to a high-performance liquid chromatography in such a manner that the Tyr-Gly-GLy (a fragment of the methionine-enkephaline) formed by the enzymatic degradation of methionine-enkephaline was isolated in some fractions of the eluate and the quantity of Tyr-Gly-GLy was determined by an electro-chemically analysing detector. In this way, IC50 value of the test compound, namely the dose of the test compound required for 50% inhibition of the enkephalinase was measured.

SMILES	Morphine Analgesia enhancement ([1]; morphine alone 0.5 mg/kg (comparative)) [%]	Morphine Analgesia enhancement ([2]; morphine alone 2 mg/kg (comparative)) [%]	Morphine Analgesia enhancement ([2]; morphine alone 3 mg/kg (comparative)) [%]	Morphine Analgesia enhancement ([1]; 250 mg/kg test compound i.p., 10 minutes later 0.5 mg/kg morphine i.p., versus 0.5 mg/kg morphine alone, tail-flick latency) [%]	Number of Writhings (Average value ± standard error) ([3]; 30 mg/kg s.c.)	Suppression of writhing reactions ([3]; 30 mg/kg s.c.) [%]	Number of Writhings (Average value ± standard error) ([3]; 150 mg/kg s.c.)	Suppression of writhing reactions ([3]; 150 mg/kg s.c.) [%]	Number of Writhings (Average value ± standard error) ([3]; 250 mg/kg s.c.)	Suppression of writhing reactions ([3]; 250 mg/kg s.c.) [%]	Dose dependence of suppression of acetic acid-writhing reaction ([3]; 30, 150 or 250 mg/kg s.c., compound alone)	pIC50 [4]
CN1CC[C@]23c4c5ccc(O)c4O[C@H]2[C@@H](O)C=C[C@H]3[C@H]1C5 [Morphine, morphine]	0	28.4	35.1									
N[C@H](Cc1ccccc1)C(=O)N[C@H](Cc1ccccc1)[C@H](O)C(=O)O [Compound 10, (2S,3R)-3-N--(R)-phenylalanylamino-2-hydroxy-4-phenylbutanoic acid]				35.0	48.3 ± 3.7	37.4	43.9 ± 3.8	43.1	31.3 ± 8.0	59.4	suppressed the acetic acid-writhing reaction in the dosage-depending manner	3.13
